Experimental data as given in PubChem BioAssay (NCI).
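Growth conditions: 96-well plates. Treatment: test compound, 48 hours, 5 concentrations. Analysis: linear interpolation between bracketing concentrations; unreached endpoints set to highest concentration. At the TGI there is no net growth.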

Columns and labels:
Test in all cases: growth of human tumour cells (NCI), 48 h
HCT-15 colon = system: HCT-15 colon
SK-MEL-2 melanoma = system: SK-MEL-2 melanoma
MDA-MB-231 breast = system: MDA-MB-231 breast
MDA-N = system: MDA-N
SF-268 CNS = system: SF-268 CNS
BT-549 breast = system: BT-549 breast
UACC-257 melanoma = system: UACC-257 melanoma
A549 NSCLC = system: A549 NSCLC
SK-MEL-5 melanoma = system: SK-MEL-5 melanoma
NCI-H23 lung = system: NCI-H23 lung
786-0 renal = system: 786-0 renal
RXF 393 renal = system: RXF 393 renal

Compound	TGI (HCT-15 colon) [µM]	TGI (SK-MEL-2 melanoma) [µM]	TGI (MDA-MB-231 breast) [µM]	TGI (MDA-N) [µM]	TGI (SF-268 CNS) [µM]	TGI (BT-549 breast) [µM]	TGI (UACC-257 melanoma) [µM]	TGI (A549 NSCLC) [µM]	TGI (SK-MEL-5 melanoma) [µM]	TGI (NCI-H23 lung) [µM]	TGI (786-0 renal) [µM]	TGI (RXF 393 renal) [µM]
CCCCCCCCCCCCNC(=O)NCC(OCC)OCC	> 10	> 10	> 10	> 10	> 10	> 10	> 10	> 10	> 10	> 10	> 10	> 10
Cc1c2c(n3c(nc4ccccc43)c1C#N)N(c1ccc(Cl)cc1)CC2	> 100	> 100	> 100	> 100	> 100	> 100	> 100	> 100	> 100	> 100	> 100	> 100
Cc1ccc(N=Nc2c(O)c3ccccc3[nH]c2=O)c(S(=O)(=O)N(C)C)c1	> 100	> 100	> 100	> 100	> 100	> 100	> 100	> 100	> 100	> 100	> 100	> 100
CSc1nc2c(c(N(C)C)n1)C=Nn1c(nc3ccccc31)S2	> 100	> 100	> 100	> 100	> 100	> 100	> 100	> 100	> 100	> 100	> 100	> 100
O=c1c2cc([N+](=O)[O-])ccc2n2n1Cc1ccccc1CC2	> 100	> 100	> 100	> 100	> 100	> 100	> 100	> 100	> 100	> 100	> 100	> 100
O=C1CC(NC(=O)C(F)(F)F)c2c(Br)sc(N3CCC(c4ccccc4)CC3)c21 (stereo not drawn)	> 100	> 100	39.8	> 100	> 100	> 100	82.4	> 100	68.4	> 100	> 100	88.3
c1ccc(COc2ccc(C[P+](c3ccccc3)(c3ccccc3)c3ccccc3)cc2)cc1	13.6	0.727	4.86	5.86	14.2	3.26	11.6	11.3	0.284	1.36	3.57	0.361
O=C(Cc1ccc(Cl)c(Cl)c1)NCCCN1CCN(CCCN2CCCCC2)CC1	46.5	21.6	28.8	6.31	50.4	57.4	19.6	49.5	22.1	42.6	31.7	31.1
CCOC(=O)CC(C)C(C#N)(OP1(=O)OC(c2ccccc2)C(C)N1C)c1ccccc1 (stereo not drawn)	> 100	> 100	> 100	> 100	> 100	> 100	> 100	> 100	> 100	> 100	> 100	> 100
